Target: T1, PASK (Invitrogen) (Homo sapiens, UniProt Q96RG2)
T1 construct: IC50 Kinase Domain; purchased Invitrogen
Experiment: PAS Kinase FRET Assay
Format: biochemical
Settings: PAS kinase TR-FRET assay (665 nm/615 nm), 2 hours at 25° C.; read-out: IC50 Kinase Domain
Text: Biochemical Assay for hPASK Activity
The aim of the FRET assay is to determine the inhibition potential of test compounds on targeted kinase. This assay platform provides a homogenous screening method for measuring kinase activity by quantitating the amount of phospho-substrate in solution following a kinase reaction.
In the presence of kinase and ATP, the Ulight-peptide is phosphorylated and captured by an anti-phospho-substrate antibody, which brings the Eu chelate donor and Ulight acceptor dyes into close proximity.
Titration of kinase at 1 mM ATP was achieved via the following protocol. […] The contents of the plate were incubated at RT for 1 h. The reaction was stopped by adding 5 μl of stop solution to each test well followed by mixing and incubation at RT for 10 minutes. 5 μl of detection mix (detection antibody diluted in detection buffer) was added; the contents of the plate were mixed and then incubated in the dark for 1 hour at RT. […] The results were graphed to calculate the EC50.
Titration of ATP at the EC50 concentration of kinase to determine ATP Km,app. was performed using the following method. […] The contents of the plate were and incubated at RT for 1 h. The reaction was stopped by adding 5 μl of stop solution to each test well followed by mixing and incubation at RT for 10 minutes. […] (detection antibody diluted in detection buffer) was added; the contents of the plate were mixed and then incubated in the dark for 1 hour at RT. […] The results were graphed to calculate the EC50 as the ATP Km,app.
Compound screening was done via the following method. 10 mM stock solution of test compound in DMSO was prepared by dissolving test compound in DMSO at RT for 1 hour, and then sonicating at 100% output for 8 minutes. If compound is not soluble under this condition, it was diluted to 3 mM. Kinase reaction buffer was prepared containing 10 mM MgCl2, 50 mM HEPES, 1 mM EGTA, 0.01% TWEEN-20, 2 mM DTT. […] As a positive control, 2.5 μl of positive compound was added to assay wells, and 2.5 μl of DMSO to assay wells as vehicle control. Kinase solution was prepared in reaction buffer at 2× final assay concentration. Kinase solution (5 μl) was added to each well of the assay plate. The substrate and ATP solution was prepared in kinase reaction buffer at 4× final assay concentration. The kinase reaction was started by adding 2.5 μl of substrate+ATP mix solution to each well of the assay plate. The plate is mixed on a plate shaker; then covered and allowed to react for 2 hours in the dark at 25° C. without shaking. The reaction was stopped by adding 5 μl of stop solution to each test well followed by mixing and incubation at RT for 10 minutes in the dark. 5 μl of detection mix (detection antibody diluted in detection buffer) was added; the contents of the plate were mixed and then incubated in the dark for 1 hour at RT.

T1 sequence (Q96RG2 999-1251 limits assumed): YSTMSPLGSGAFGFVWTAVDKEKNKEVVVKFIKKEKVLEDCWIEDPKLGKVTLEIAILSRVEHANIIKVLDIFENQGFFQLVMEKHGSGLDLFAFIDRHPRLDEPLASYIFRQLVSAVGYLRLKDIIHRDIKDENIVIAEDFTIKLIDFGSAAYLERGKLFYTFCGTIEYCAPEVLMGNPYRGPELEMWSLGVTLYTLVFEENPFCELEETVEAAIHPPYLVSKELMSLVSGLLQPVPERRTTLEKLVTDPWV

Row | SMILES | IC50
1 | CC(C)N(C)c1nc2cc(C(=O)O)ccc2nc1-c1coc2ccccc12 [Example 1, 2-(Benzofuran-3-yl)-3-(isopropyl(methyl)amino)quinoxaline-6-carboxylic acid] | < 10 µM
2 | CC(C)N(C)c1nc2cc(C(=O)O)ccc2nc1-c1cn[nH]c1 [Example 2, 3-(Isopropyl(methyl)amino)-2-(1H-pyrazol-4-yl)quinoxaline-6-carboxylic acid] | < 10 µM
3 | CC(C)N(C)c1nc2cc(C(=O)O)ccc2nc1-c1ccc2cn[nH]c2c1 [Example 4, 2-(1H-Indazol-6-yl)-3-(isopropyl(methyl)amino)quinoxaline-6-carboxylic acid] | < 10 µM
4 | CC(C)N(C)c1nc2cc(C(=O)O)ccc2nc1-c1ccc2cnn(C)c2c1 [Example 5, 3-(Isopropyl(methyl)amino)-2-(1-methyl-1H-indazol-6-yl)quinoxaline-6-carboxylic acid] | < 10 µM
5 | COc1ccc2[nH]c(-c3nc4ccc(C(=O)O)cc4nc3N(C)C(C)C)cc2c1 [Example 6, 3-(Isopropyl(methyl)amino)-2-(5-methoxy-1H-indol-2-yl)quinoxaline-6-carboxylic acid] | < 10 µM
6 | CC(C)N(C)c1nc2cc(C(=O)O)ccc2nc1-c1cncc(Br)c1 [Example 7, 2-(5-Bromopyridin-3-yl)-3-(isopropyl(methyl)amino)quinoxaline-6-carboxylic acid] | < 10 µM
7 | CC(C)N(C)c1nc2cc(C(=O)O)ccc2nc1-c1ccc2[nH]ncc2c1 [Example 8, 2-(1H-Indazol-5-yl)-3-(isopropyl(methyl)amino)quinoxaline-6-carboxylic acid] | < 10 µM
8 | CC(C)N(C)c1nc2cc(C(=O)O)ccc2nc1-c1c[nH]nc1C(F)(F)F [Example 9, 3-(Isopropyl(methyl)amino)-2-(3-(trifluoromethyl)-1H-pyrazol-4-yl)quinoxaline-6-carboxylic acid] | < 10 µM
9 | CC(C)N(C)c1nc2cc(C(=O)O)ccc2nc1-c1ccc(NC(=O)OC(C)(C)C)nc1 [Example 10, 2-(6-(tert-Butoxycarbonylamino)pyridin-3-yl)-3-(isopropyl(methyl)amino)quinoxaline-6-carboxylic acid] | < 10 µM
10 | CC(C)N(C)c1nc2cc(C(=O)O)ccc2nc1-c1ccnc(F)c1 [Example 11, 2-(2-Fluoropyridin-4-yl)-3-(isopropyl(methyl)amino)quinoxaline-6-carboxylic acid] | < 10 µM
11 | CC(C)N(C)c1nc2cc(C(=O)O)ccc2nc1-c1ccc(N2CCCC2)nc1 [Example 12, 3-(Isopropyl(methyl)amino)-2-(6-(pyrrolidin-1-yl)pyridin-3-yl)quinoxaline-6-carboxylic acid] | > 10 µM
12 | CC(C)N(C)c1nc2cc(C(=O)O)ccc2nc1-c1ccc(F)nc1 [Example 13, 2-(6-Fluoropyridin-3-yl)-3-(isopropyl(methyl)amino)quinoxaline-6-carboxylic acid] | < 10 µM
13 | CC(C)N(C)c1nc2cc(C(=O)O)ccc2nc1-c1ccc(N)nc1 [Example 16, 2-(6-Aminopyridin-3-yl)-3-(isopropyl(methyl)amino)quinoxaline-6-carboxylic acid] | < 10 µM
14 | COc1ccc2oc(-c3nc4ccc(C(=O)O)cc4nc3N(C)C(C)C)cc2c1 [Example 17, 3-(Isopropyl(methyl)amino)-2-(5-methoxybenzofuran-2-yl)quinoxaline-6-carboxylic acid] | < 10 µM
15 | CC(C)N(C)c1nc2cc(C(=O)O)ccc2nc1-c1ccc2c(c1)OCCCO2 [Example 20, 2-(3,4-Dihydro-2H-benzo[b][1,4]dioxepin-7-yl)-3-(isopropyl(methyl)amino)quinoxaline-6-carboxylic acid] | < 10 µM
16 | CC(C)N(C)c1nc2cc(C(=O)O)ccc2nc1-c1cc2cc(F)ccc2s1 [Example 24, 2-(5-Fluorobenzo[b]thiophen-2-yl)-3-(isopropyl(methyl)amino)quinoxaline-6-carboxylic acid] | < 10 µM
17 | CC(C)N(C)c1nc2cc(C(=O)O)ccc2nc1-c1ccc2c(cnn2C)c1 [Example 25, 3-(Isopropyl(methyl)amino)-2-(1-methyl-1H-indazol-5-yl)quinoxaline-6-carboxylic acid] | < 10 µM

Row | SMILES | IC50
18 | CCn1ncc2cc(-c3nc4ccc(C(=O)O)cc4nc3N(C)C(C)C)ccc21 [Example 26, 2-(1-Ethyl-1H-indazol-5-yl)-3-(isopropyl(methyl)amino)quinoxaline-6-carboxylic acid] | < 10 µM
19 | CCN(CC)c1nc2cc(C(=O)O)ccc2nc1-c1cc2ccccc2o1 [Example 27, 2-(1-Benzofuran-2-yl)-3-(diethylamino)quinoxaline-6-carboxylic acid] | < 10 µM
20 | CN(c1nc2cc(C(=O)O)ccc2nc1-c1ccc2[nH]ncc2c1)C1CC1 [Example 29, 3-(Cyclopropyl(methyl)amino)-2-(1H-indazol-5-yl)quinoxaline-6-carboxylic acid] | < 10 µM
21 | CC(C)N(C)c1nc2cc(C(=O)O)ccc2nc1-c1ccc2occc2c1 [Example 30, 2-(1-Benzofuran-5-yl)-3-[methyl(propan-2-yl)amino]quinoxaline-6-carboxylic acid] | < 10 µM
22 | CC(C)N(C)c1nc2cc(C(=O)O)ccc2nc1-c1cc2ccc(Cl)cc2o1 [Example 31, 2-(6-Chloro-1-benzofuran-2-yl)-3-[methyl(propan-2-yl)amino]quinoxaline-6-carboxylic acid] | < 10 µM
23 | C[C@H]1CCCN1c1nc2cc(C(=O)O)ccc2nc1-c1cc2ccc(F)cc2o1 [Example 32, (S)-2-(6-Fluorobenzofuran-2-yl)-3-(2-methylpyrrolidin-1-yl)quinoxaline-6-carboxylic acid] | < 10 µM
24 | CC(C)N(C)c1nc2cc(C(=O)O)ccc2nc1-c1cc2cc(F)c(F)cc2o1 [Example 33, 2-(5,6-Difluorobenzofuran-2-yl)-3-(isopropyl(methyl)amino)quinoxaline-6-carboxylic acid] | < 10 µM
25 | C[C@H]1CCCN1c1nc2cc(C(=O)O)ccc2nc1-c1ccc2c(c1)OC(F)(F)O2 [Example 34, (S)-2-(2,2-Difluorobenzo[d][1,3]dioxol-5-yl)-3-(2-methylpyrrolidin-1-yl)quinoxaline-6-carboxylic acid] | < 10 µM
26 | O=C(O)c1ccc2nc(-c3ccc4[nH]ncc4c3)c(N3CCCCC3)nc2c1 [Example 35, 2-(1H-Indazol-5-yl)-3-(piperidin-1-yl)quinoxaline-6-carboxylic acid] | < 10 µM
27 | O=C(O)c1ccc2nc(-c3ccc4[nH]ncc4c3)c(N3CCCCCC3)nc2c1 [Example 36, 3-(Azepan-1-yl)-2-(1H-indazol-5-yl)quinoxaline-6-carboxylic acid] | < 10 µM
28 | O=C(O)c1ccc2nc(-c3ccc4[nH]ccc4c3)c(N3CCCCCC3)nc2c1 [Example 37, 3-(Azepan-1-yl)-2-(1H-indol-5-yl)quinoxaline-6-carboxylic acid] | < 10 µM
29 | CCN(CC)c1nc2cc(C(=O)O)ccc2nc1-c1ccc2[nH]ccc2c1 [Example 38, 3-(Diethylamino)-2-(1H-indol-5-yl)quinoxaline-6-carboxylic acid] | < 10 µM
30 | O=C(O)c1ccc2nc(-c3cc4cc(F)ccc4o3)c(N3CCCCCC3)nc2c1 [Example 39, 3-(Azepan-1-yl)-2-(5-fluorobenzofuran-2-yl)quinoxaline-6-carboxylic acid] | < 10 µM
31 | C[C@H]1CCCN1c1nc2cc(C(=O)O)ccc2nc1-c1ccc2[nH]ccc2c1 [Example 40, (S)-2-(1H-Indol-5-yl)-3-(2-methylpyrrolidin-1-yl)quinoxaline-6-carboxylic acid] | < 10 µM
32 | C[C@H]1CCCN1c1nc2cc(C(=O)O)ccc2nc1-c1cc2cc(F)ccc2o1 [Example 41, (S)-2-(5-Fluorobenzofuran-2-yl)-3-(2-methylpyrrolidin-1-yl)quinoxaline-6-carboxylic acid] | < 10 µM
33 | CC(C)N(C)c1nc2cc(C(=O)O)ccc2nc1-c1ccc2c(c1)OC(F)(F)O2 [Example 42, 2-(2,2-Difluorobenzo[d][1,3]dioxol-5-yl)-3-(isopropyl(methyl)amino)quinoxaline-6-carboxylic acid] | < 10 µM
34 | CC(C)N(C)c1nc2cc(C(=O)O)ccc2nc1-c1ccn[nH]1 [Example 43, 3-(Isopropyl(methyl)amino)-2-(1H-pyrazol-5-yl)quinoxaline-6-carboxylic acid] | < 10 µM

— patent publication US8912188B2, “Substituted quinoxaline carboxylic acids for the inhibition of PASK” (BioEnergenix, LLC, priority 2011, dated 2014)
